What was measured:
[1] = test system: MALT1^WT NF-κB activation; experiment: NF-κB reporter assay in 293T cells, PMA/ionomycin, BCL10 and MALT1 WT; assay type: cell-based; details: pre-treatment
From the text: Antigen receptor-mediated NF-κB signaling partly depends on MALT1 activity (Ruefli-Brasse et al., 2003; Ruland et al., 2003). […] First, 293T cells were transfected with the NF-κB reporter vector (NF-κB)5-luc2CP-pGL4 (harboring 5 copies of the NF-κB consensus response element and a destabilized Firefly luciferase) and TK-pRL control together with plasmids expressing BCL10 and either MALT1^WT or MALT1^C464A. […] HBL-1 was transfected with the reporter construct (NF-κB)5-luc2CP-pGL4 and TK-pRL control.
Reporter assays were performed in 293T cells seeded at a density of 2×10^5 cells per well of a 12-well dish. 100 ng of (NF-κB)5-Luc2CP-pGL4 and 10 ng of TK-Renilla internal control plasmid were cotransfected along with 25 ng of the indicated plasmids (MIGR1-MALT1^WT or MIGR1-MALT1^C464A and pcDNA4-Flag-Bcl10) using Lipofectamine 2000 (Invitrogen). Lysates were submitted to dual luciferase assays following manufacturer's protocol (Promega). In HBL-1, 5 μg of (NF-κB)5-Luc2CP-pGL4 and 50 ng of TK-Renilla internal control plasmid per 5×10^6 cells were cotransfected using nucleofection (Amaxa, Lonza, Basel, Switzerland). Forty-eight hours after transfection, cells were plated at a density of 5×10^4 cells per well of a 24-well plate and treated as indicated. Lysates were submitted to dual luciferase assays following manufacturer's protocol (Promega).

[2] = test system: c-REL; experiment: c-REL flow cytometry of whole cells or isolated nuclei, HBL-1 cells; assay type: cell-based, human; details: 200 nM MI-2 or 50 μM Z-VRPR-FMK, 24 hr
Method: MALT1 mediates c-REL translocation to the nucleus following BCR stimulation (Ferch et al., 2007). […] This selectivity towards c-REL had also been previously shown in MALT1 knockout mice and after MALT1 cleavage inhibition by the MALT1 blocking peptide Z-VRPR-FMK (Ferch et al., 2009; Ferch et al., 2007; Hailfinger et al., 2011).
[…] was studied by flow cytometry. Cells were treated as indicated and total cells or isolated nuclei were prepared and stained for c-REL. Total cells were fixed and permeabilized using the Intrastain kit from Dako (Glostrup, Denmark). For nuclei extraction, cells were resuspended in cold nuclei extraction buffer (320 mM sucrose, 5 mM MgCl2, 10 mM HEPES, 1% Triton X-100 at pH 7.4), incubated for 10 min on ice and washed twice with nuclei wash buffer (320 mM sucrose, 5 mM MgCl2, 10 mM HEPES at pH 7.4, no Triton X-100). Nuclei yield and integrity were confirmed by microscopic examination with trypan blue staining. For labeling, nuclei wash buffer was supplemented with 1% BSA, 0.1% sodium azide and 1:100 c-REL antibody (Cell Signaling). Cells were washed then incubated with Alexa Fluor-488 conjugated secondary antibodies from Invitrogen. Cells were washed again and stained with DAPI followed by flow cytometry.

[3] = test system: GCB-DLBCL cell lines OCI-Ly7 and OCI-Ly1; experiment: Growth inhibition, GCB-DLBCL cell lines; assay type: cell-based, human; details: 50 μM, 48 hr
Method: (§1) Endogenous MALT1 activity was evaluated by Western blotting for A20, BCL10 and CYLD; and NF-κB activation, by phospho-IκB-α and total IκB-α. Dependence on MALT1 proteolytic activity for proliferation was tested by 50[…]μM Z-VRPR-FMK treatment for 48 hr. […] The U2932 and HLY1 ABC-DLBCL cell lines harbor mutations in TAK1 and A20, which activate NF-κB signaling downstream of MALT1.
(§2) Cell proliferation was determined by ATP quantification using a luminescent method (CellTiter-Glo, Promega, Madison, Wis.) and Trypan blue dye-exclusion (Sigma, St. Louis, Mo.). Cell viability in drug-treated cells was normalized to their respective controls (fractional viability) and results are given as 1-fractional viability. […]
(§3) DLBCL cell lines were grown in exponential growth conditions during the 48 hr of treatment. Cell proliferation was determined by ATP quantification using a luminescent method (CellTiter-Glo, Promega, Madison, Wis.) and Trypan blue dye-exclusion (Sigma, St. Louis, Mo.). Luminescence was measured using the Synergy4 microplate reader (BioTek Instruments, Winooski, Vt.). Standard curves for each cell line were calculated by plotting the cell number (determined by the Trypan blue method) against their luminescence values and number of cells was calculated accordingly. […]

[4] = test system: ABC-DLBCL MALT1 independent cell lines U2932 and HLY-1; experiment: Growth inhibition, MALT1 independent ABC-DLBCL cell lines; assay type: cell-based, human; details: 50 μM, 48 hr
Method: as §1, §2, §3

[5] = test system: MALT1 dependent ABC-DLBCL cells HBL-1, TMD8, OCI-Ly3 and OCI-Ly10; experiment: Growth inhibition, MALT1 dependent cell lines; assay type: cell-based, human; details: 50 μM, 48 hr
Method: as §1, §2, §3

[6] = target: T1, LZ-MALT1 (Homo sapiens, UniProt Q9UDY8); experiment: Dose-effect and time-course of MALT1 inhibition (pre-incubation, then Ac-LRSR-AMC); assay type: biochemical; details: pre-incubation 5 to 80 minutes
T1 construct: His tag (N); made in house; host or cells: E. coli
T1 sequence (Q9UDY8 with tags, fused parts or gaps limits assumed): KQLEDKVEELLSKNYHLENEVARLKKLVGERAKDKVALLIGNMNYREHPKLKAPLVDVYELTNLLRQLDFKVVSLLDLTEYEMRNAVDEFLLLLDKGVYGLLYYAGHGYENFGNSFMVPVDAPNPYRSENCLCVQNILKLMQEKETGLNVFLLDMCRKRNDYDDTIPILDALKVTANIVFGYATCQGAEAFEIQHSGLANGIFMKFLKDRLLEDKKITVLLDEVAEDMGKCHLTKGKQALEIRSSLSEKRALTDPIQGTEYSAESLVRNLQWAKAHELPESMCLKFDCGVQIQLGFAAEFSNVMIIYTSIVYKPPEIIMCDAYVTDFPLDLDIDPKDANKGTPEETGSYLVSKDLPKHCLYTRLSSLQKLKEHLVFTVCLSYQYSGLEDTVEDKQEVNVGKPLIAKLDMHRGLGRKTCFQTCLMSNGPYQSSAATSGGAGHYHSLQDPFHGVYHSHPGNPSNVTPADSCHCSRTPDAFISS
Method: The reactions were monitored in a SpectraMax M5 plate reader (Molecular Devices, Sunnyvale, Calif. USA) with excitation/emission wavelength at 360/465 nm and 20 seconds intervals. Normalized percentage of inhibition was calculated with the following formula: (M(T2-T1)−N(T2-T1))/(P(T2-T1)−N(T2-T1))*100, where M(T2-T1) is the difference signal of compound at time point 200s and 0s, N(T2-T1) is the difference signal of negative control buffer only, P(T2-T1) is the difference signal of positive control Z-VRPR-FMK.

[7] = target: T2, LZ-MALT1 (MALT1 (340-789) fused with a leucine zipper dimerization motif) (Homo sapiens, UniProt Q9UDY8); experiment: LZ-MALT1 fluorescence assay (Ac-LRSR-AMC cleavage), screening and concentration response; assay type: biochemical
T2 construct: His tag (N); made in house; host or cells: E. coli
T2 sequence (Q9UDY8 with tags, fused parts or gaps limits assumed): as above
From the text: We reasoned that MALT1 small-molecule inhibitors might be useful chemical tools for studying MALT1 biology and treating MALT1 addicted tumors. However, full-length MALT1 and its paracaspase domain (amino acids 340-789) are naturally present in physiological solutions as a monomer, which has very low proteolytic activity. Caspases generally must homodimerize for maximal catalytic activity (Pop et al., 2006; Walker et al., 1994; Yin et al., 2006) and accordingly the recently reported structures of the paracaspase domain of MALT1 in complex with a peptide inhibitor are dimeric (Wiesmann et al., 2012; Yu et al., 2011). […]
Ac-LRSR-AMC was used as substrate and reactions were measured with excitation/emission wavelengths of 360/465 nm. […] The final percent inhibition was calculated with the formula: {[fluorescencetest compound(T2-T1)−fluorescenceneg ctrl(T2−T1)]/[fluorescencepos ctrl(T2−T1)−fluorescenceneg ctrl(T2−T1)]}×100. […]
The screening consisted of a 20 μl reaction in 384-well black plates (Greiner Bio One, Wemmel, Belgium, catalogue #784076) with 100 nM LZ-MALT1, 200 μM Ac-LRSR-AMC, and 12.5 μM test compound in buffer A (20 mM HEPES pH 7.5, 10 mM KCl, 1.5 mM MgCl2, 1 mM EDTA, 1 mM DTT, 0.01% Triton X-100). The reactions were measured with excitation/emission wavelengths of 360/465 nm using Envision Multilabel Reader (Perkin-Elmer, Waltham, Mass.). […]

| Molecule | NF-κB induction by PMA/ionomycin stimulation [1] | nuclear c-REL ([2]; isolated nuclei) | whole cell c-REL ([2]; whole cells) | response of proliferation [3] | response of proliferation [4] | response of proliferation [5] | kind of inhibition (time dependence) [6] | percent MALT1 inhibition reached [6] [%] | biochemical IC50 (in words) [7] |
| --- | --- | --- | --- | --- | --- | --- | --- | --- | --- |
| Z-VRPR-FMK [reference compound] | significantly inhibited NF-κB induction | reduced nuclear c-REL | without affecting whole cell levels | did not respond | relatively little response | inhibition of proliferation |  |  |  |
| COCCOc1nc(-c2cccc(OC)c2)n(-c2ccc(NC(=O)c3cccc([N+](=O)[O-])c3)cc2)n1 [MI-2A2] |  |  |  |  |  |  | reversible inhibition | ~50 | lower IC50 |

Source: patent US9592223B2, “Small molecule inhibitors of MALT1” (Cornell University, priority 2012, dated 2017)
